Data reported in PubChem BioAssay (NCI).
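Interpolation was linear, between the two tested concentrations surrounding the appropriate level; five concentrations were tested over 48 hours in 96-well plates. GI50 is the concentration that inhibits growth by half. TGI: concentration producing complete growth inhibition.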

How the values were obtained:
Assay in all cases: NCI anticancer screen, dose series, 48 h
786-0 renal = tested on: 786-0 renal
HCC-2998 colon = tested on: HCC-2998 colon
HT29 colon = tested on: HT29 colon
M14 melanoma = tested on: M14 melanoma
NCI-H226 lung = tested on: NCI-H226 lung
OVCAR-5 ovarian = tested on: OVCAR-5 ovarian
SK-MEL-2 melanoma = tested on: SK-MEL-2 melanoma
SK-MEL-28 melanoma = tested on: SK-MEL-28 melanoma
SW-620 colon = tested on: SW-620 colon
NCI/ADR-RES ovarian = tested on: NCI/ADR-RES ovarian

O=C(O)CCNS(=O)(=O)c1ccc2ccccc2c1
TGI (786-0 renal): > 100 µM | TGI (HCC-2998 colon): > 100 µM | TGI (HT29 colon): > 100 µM | TGI (M14 melanoma): > 100 µM | TGI (NCI-H226 lung): > 100 µM | TGI (OVCAR-5 ovarian): > 100 µM | TGI (SK-MEL-2 melanoma): > 100 µM | TGI (SK-MEL-28 melanoma): > 100 µM | TGI (SW-620 colon): > 100 µM

CC(C)N(Cc1ccc(CN(C(=O)CCl)C(C)C)cc1)C(=O)CCl
GI50 (786-0 renal): 351 nM | TGI (786-0 renal): 1.3 µM | GI50 (HCC-2998 colon): 2000 nM | TGI (HCC-2998 colon): 3.94 µM | GI50 (M14 melanoma): 1860 nM | TGI (M14 melanoma): 7.12 µM | GI50 (NCI-H226 lung): 3250 nM | TGI (NCI-H226 lung): 9.44 µM | GI50 (NCI/ADR-RES ovarian): 2490 nM | TGI (NCI/ADR-RES ovarian): 7.73 µM | GI50 (OVCAR-5 ovarian): 1910 nM | TGI (OVCAR-5 ovarian): 3.97 µM | GI50 (SK-MEL-2 melanoma): 2360 nM | TGI (SK-MEL-2 melanoma): 5.88 µM | GI50 (SK-MEL-28 melanoma): 2360 nM | TGI (SK-MEL-28 melanoma): 6.52 µM | GI50 (SW-620 colon): 1450 nM | TGI (SW-620 colon): 4.22 µM

COc1ccc2oc3c(OC)c(OC)c(OC)cc3c(=O)c2c1
TGI (786-0 renal): > 100 µM | TGI (HCC-2998 colon): > 100 µM | TGI (HT29 colon): > 100 µM | TGI (M14 melanoma): > 100 µM | TGI (OVCAR-5 ovarian): > 100 µM | TGI (SK-MEL-2 melanoma): > 100 µM | TGI (SK-MEL-28 melanoma): > 100 µM | TGI (SW-620 colon): > 100 µM

COc1ccccc1S(=O)(=O)Nc1ccc2c3c(cc(CCC(=O)NCCCCNc4cccc5c4C(=O)N(C4CCC(=O)NC4=O)C5=O)cc13)C(=O)N2C (configuration not stated)
GI50 (786-0 renal): 2180 nM | TGI (786-0 renal): > 100 µM | GI50 (HT29 colon): 3.84 µM | TGI (HT29 colon): > 100 µM | GI50 (M14 melanoma): 1110 nM | TGI (M14 melanoma): > 100 µM | GI50 (NCI-H226 lung): 456 nM | TGI (NCI-H226 lung): 4.79 µM | GI50 (NCI/ADR-RES ovarian): > 100000 nM | TGI (NCI/ADR-RES ovarian): > 100 µM | GI50 (OVCAR-5 ovarian): 2770 nM | TGI (OVCAR-5 ovarian): > 100 µM | GI50 (SK-MEL-2 melanoma): 762 nM | TGI (SK-MEL-2 melanoma): > 27.4 µM | GI50 (SK-MEL-28 melanoma): 1080 nM | TGI (SK-MEL-28 melanoma): > 100 µM | GI50 (SW-620 colon): 240 nM | TGI (SW-620 colon): > 100 µM

CCOC(=O)c1cc(-c2ccc(-c3cc(C(=O)OCC)c(C#N)c(N)c3C#N)cc2)c(C#N)c(N)c1C#N
TGI (786-0 renal): > 100 µM | TGI (HCC-2998 colon): > 100 µM | TGI (HT29 colon): > 100 µM | TGI (M14 melanoma): > 100 µM | TGI (NCI-H226 lung): > 100 µM | TGI (OVCAR-5 ovarian): > 100 µM | TGI (SK-MEL-2 melanoma): > 100 µM | TGI (SK-MEL-28 melanoma): > 100 µM | TGI (SW-620 colon): > 100 µM

Cc1ccc(N=C[N-]c2ccc(C)cc2)cc1.Cc1ccc(N=C[N-]c2ccc(C)cc2)cc1.O=C([O-])C(F)(F)F.O=C([O-])C(F)(F)F.[OH3+].[OH3+].[Rh+2].[Rh+2]
GI50 (786-0 renal): 23500 nM | TGI (786-0 renal): 58.5 µM | GI50 (HCC-2998 colon): 36500 nM | TGI (HCC-2998 colon): > 100 µM | GI50 (HT29 colon): 19.4 µM | TGI (HT29 colon): 42.1 µM | GI50 (M14 melanoma): 26200 nM | TGI (M14 melanoma): 70.3 µM | GI50 (NCI-H226 lung): 89600 nM | TGI (NCI-H226 lung): > 100 µM | GI50 (OVCAR-5 ovarian): > 100000 nM | TGI (OVCAR-5 ovarian): > 100 µM | GI50 (SK-MEL-2 melanoma): 32600 nM | TGI (SK-MEL-2 melanoma): 69.8 µM | GI50 (SK-MEL-28 melanoma): 14100 nM | TGI (SK-MEL-28 melanoma): 39.2 µM | GI50 (SW-620 colon): 31900 nM | TGI (SW-620 colon): > 100 µM

COCCOc1cc(C)cc(/C=C(C)/C=C/C2=C(C)CCCC2(C)C)n1
TGI (786-0 renal): > 100 µM | TGI (HT29 colon): > 100 µM | TGI (M14 melanoma): > 100 µM | TGI (NCI-H226 lung): > 100 µM | TGI (OVCAR-5 ovarian): > 100 µM | TGI (SK-MEL-2 melanoma): > 100 µM | TGI (SK-MEL-28 melanoma): > 100 µM | TGI (SW-620 colon): > 100 µM

NC1c2ccccc2Nc2ccccc21
TGI (786-0 renal): 15.9 µM | TGI (HCC-2998 colon): 18.1 µM | TGI (HT29 colon): 20.4 µM | TGI (M14 melanoma): 15.4 µM | TGI (NCI-H226 lung): 27.9 µM | TGI (OVCAR-5 ovarian): 25.6 µM | TGI (SK-MEL-2 melanoma): 29.8 µM | TGI (SK-MEL-28 melanoma): 14.2 µM | TGI (SW-620 colon): 14.4 µM

O=[N+]([O-])c1ccc(Cl)c(CNc2ncnc3c2ncn3C2CCCCO2)c1 (configuration not stated)
TGI (786-0 renal): > 100 µM | TGI (HT29 colon): > 100 µM | TGI (M14 melanoma): > 100 µM | TGI (NCI-H226 lung): 86.6 µM | TGI (NCI/ADR-RES ovarian): > 100 µM | TGI (OVCAR-5 ovarian): > 100 µM | TGI (SK-MEL-2 melanoma): > 100 µM | TGI (SK-MEL-28 melanoma): > 100 µM | TGI (SW-620 colon): > 100 µM

O=C(C(=O)n1ncc(Cl)c(Cl)c1=O)n1ncc(Cl)c(Cl)c1=O
TGI (786-0 renal): 44.6 µM | TGI (HCC-2998 colon): 46.9 µM | TGI (HT29 colon): 34 µM | TGI (M14 melanoma): > 68.7 µM | TGI (NCI-H226 lung): > 100 µM | TGI (OVCAR-5 ovarian): > 100 µM | TGI (SK-MEL-2 melanoma): 74.9 µM | TGI (SK-MEL-28 melanoma): 59.3 µM | TGI (SW-620 colon): 42.7 µM

CCCCCC(=O)Nc1nc2nc[nH]c2c(=O)[nH]1
TGI (786-0 renal): > 100 µM | TGI (HCC-2998 colon): > 100 µM | TGI (HT29 colon): > 100 µM | TGI (M14 melanoma): > 100 µM | TGI (NCI-H226 lung): > 100 µM | TGI (OVCAR-5 ovarian): > 100 µM | TGI (SK-MEL-2 melanoma): > 100 µM | TGI (SW-620 colon): > 100 µM

Cc1cccc(C(=O)O)c1C(=O)c1cccc2ccccc12
TGI (786-0 renal): > 100 µM | TGI (HCC-2998 colon): > 100 µM | TGI (HT29 colon): > 100 µM | TGI (M14 melanoma): > 100 µM | TGI (NCI-H226 lung): > 100 µM | TGI (OVCAR-5 ovarian): > 100 µM | TGI (SK-MEL-2 melanoma): > 100 µM | TGI (SK-MEL-28 melanoma): > 100 µM | TGI (SW-620 colon): > 100 µM

CC1=C(SC#N)S(=O)(=O)N(c2ccccc2)C(C)=C1SC#N
TGI (786-0 renal): > 100 µM | TGI (HCC-2998 colon): > 100 µM | TGI (HT29 colon): > 100 µM | TGI (NCI-H226 lung): 81.6 µM | TGI (OVCAR-5 ovarian): > 100 µM | TGI (SK-MEL-2 melanoma): > 100 µM | TGI (SK-MEL-28 melanoma): > 100 µM | TGI (SW-620 colon): > 100 µM

CCCCCCCC1(c2ccc(N)cc2)CCC(=O)NC1=O (configuration not stated)
TGI (786-0 renal): > 100 µM | TGI (HCC-2998 colon): > 100 µM | TGI (M14 melanoma): > 100 µM | TGI (OVCAR-5 ovarian): > 100 µM | TGI (SK-MEL-2 melanoma): > 100 µM | TGI (SK-MEL-28 melanoma): > 100 µM | TGI (SW-620 colon): > 100 µM

Cc1ccc(NC(=O)C(=O)CC(=O)c2c(C)n([O-])c3ccccc3[n+]2=O)cc1C
TGI (786-0 renal): > 100 µM | TGI (HCC-2998 colon): > 100 µM | TGI (HT29 colon): > 100 µM | TGI (M14 melanoma): > 100 µM | TGI (NCI-H226 lung): > 100 µM | TGI (OVCAR-5 ovarian): > 100 µM | TGI (SK-MEL-2 melanoma): > 100 µM | TGI (SK-MEL-28 melanoma): > 100 µM | TGI (SW-620 colon): > 100 µM

Clc1ccc(-c2c3ccc(=[N+]4CCCCC4)cc-3oc3cc(N4CCCCC4)ccc23)cc1
GI50 (786-0 renal): 103 nM | TGI (786-0 renal): 0.226 µM | GI50 (HCC-2998 colon): 120 nM | TGI (HCC-2998 colon): 0.248 µM | GI50 (M14 melanoma): 69.6 nM | TGI (M14 melanoma): 0.209 µM | GI50 (OVCAR-5 ovarian): 145 nM | TGI (OVCAR-5 ovarian): 0.323 µM

CCC[CH2][Sn]([CH2]CCC)([S]C#N)[S]C#N
GI50 (786-0 renal): 1200 nM | TGI (786-0 renal): 2.49 µM | GI50 (HCC-2998 colon): 1150 nM | TGI (HCC-2998 colon): 2.39 µM | GI50 (HT29 colon): 2.77 µM | TGI (HT29 colon): 8.51 µM | GI50 (M14 melanoma): 1490 nM | TGI (M14 melanoma): 3.48 µM | GI50 (NCI-H226 lung): 1770 nM | TGI (NCI-H226 lung): 3.25 µM | GI50 (OVCAR-5 ovarian): 1560 nM | TGI (OVCAR-5 ovarian): 2.96 µM | GI50 (SK-MEL-2 melanoma): 457 nM | TGI (SK-MEL-2 melanoma): 1.68 µM | GI50 (SK-MEL-28 melanoma): 753 nM | TGI (SK-MEL-28 melanoma): 2.15 µM | GI50 (SW-620 colon): 378 nM | TGI (SW-620 colon): 1.54 µM

COc1cc(/C=C/c2ccc(O)c(OC)c2)cc(OC)c1
TGI (786-0 renal): > 100 µM | TGI (HCC-2998 colon): > 100 µM | TGI (HT29 colon): 85.8 µM | TGI (M14 melanoma): 70.8 µM | TGI (NCI/ADR-RES ovarian): > 100 µM | TGI (OVCAR-5 ovarian): > 100 µM | TGI (SK-MEL-28 melanoma): > 100 µM | TGI (SW-620 colon): > 100 µM

N#CC(C(=O)CCCC(=O)Nc1ccc(Cl)cc1Cl)c1ccccc1 (configuration not stated)
TGI (786-0 renal): > 100 µM | TGI (HCC-2998 colon): > 100 µM | TGI (HT29 colon): > 100 µM | TGI (M14 melanoma): > 100 µM | TGI (NCI-H226 lung): > 100 µM | TGI (OVCAR-5 ovarian): > 100 µM | TGI (SK-MEL-2 melanoma): > 100 µM | TGI (SK-MEL-28 melanoma): > 100 µM | TGI (SW-620 colon): > 100 µM

Cc1ccc(C)c(N2C(=O)C(=O)C(c3nc4ccccc4o3)C(=O)C2=O)c1
TGI (786-0 renal): > 100 µM | TGI (HCC-2998 colon): > 100 µM | TGI (HT29 colon): > 100 µM | TGI (M14 melanoma): > 100 µM | TGI (NCI-H226 lung): > 100 µM | TGI (SK-MEL-2 melanoma): > 100 µM | TGI (SK-MEL-28 melanoma): > 100 µM | TGI (SW-620 colon): > 100 µM
